In ChEMBL document CHEMBL3507680, “University of Dundee, Gates Library screen for HepG2 cell viability”:

Assay: Human HepG2 cell viability assay in 384 well format
Assay type: toxicity, cell-based
Design: dose 125 nL, time 70.5 hour; cytotoxicity at 70.5 h: concentration not given beside the values
Settings: HepG2 cells, read-out: Inhibition

Compound | cytotoxicity at 70.5 h [%]
CN(Cc1ccco1)Cc1ccccc1CNC(=O)c1c[nH]nn1 | -1.03
Cn1ccnc1CN1CCCC1Cn1cccn1 (stereo unspecified) | -1.33
CC(C)c1noc(CCC(=O)Nc2cc(C(F)(F)F)c[nH]c2=O)n1 | -3.33
COc1ccc(Cc2ncc3c(n2)CN(C(=O)C2COCCO2)C3)cc1 (stereo unspecified) | -3.32
CS(=O)(=O)NCc1nnc2n1CCN(Cc1cccnc1)C2 | 18.3
CS(=O)(=O)c1cccc(C(N)c2ccc(Cl)cc2)c1 (stereo unspecified) | -4.71
Cc1cnn(CC2CCCN2C(=O)c2sccc2-n2cnnn2)c1 (stereo unspecified) | -4.41
CC(C)c1nn(CC(=O)N2CCCC2)c(=O)c2c1cnn2C(C)(C)C | 14.2
O=S(=O)(CCNCCn1cccn1)c1ccccc1 | -18.7
COc1cc(CNCc2c(C)nn(C)c2N(C)C)ccc1C | -3.16
CNC(=O)[C@H]1C[C@@H]2CN(C(=O)c3ccccn3)C[C@@H]2N1S(C)(=O)=O | -7.73
COc1cccc(OC)c1-c1c[nH]c(C)n1 | -19.9
CCOC(=O)C1CCN(c2cc(C(=O)N3CCOCC3)nc(C)n2)CC1 | 0.918
COc1ccccc1CC(=O)N1CC[C@@]2(CCCO2)[C@@H](OC)C1 | 25.6
CN(C)C(=O)N1CCOCC2(CCN(c3ncccn3)C2)C1 (stereo unspecified) | -5.25
CCn1cc(CN2CCN(Cc3cc(C)cc(C)c3)C(=O)C2)cc1C#N | 15.6
CN1CCN(c2cccc(NC(=O)NCc3csc(N(C)C)n3)c2)C1=O | 35.3
CN(Cc1nc(C2CC2)no1)C(=O)CN1CC(c2ccccc2)CC1=O (stereo unspecified) | -2.96
CC(Cc1ccco1)NC(=O)Nc1cccnc1 (stereo unspecified) | 2.87

Compound | cytotoxicity at 70.5 h [%]
CC(C)N(C)Cc1cnc2n1CCN(Cc1ccc(F)cc1)C2 | -9.32
Cc1cc(C)n(CC2CCCN2C(=O)c2cnccn2)n1 (stereo unspecified) | 14.8
c1ccc(Oc2ccc(CNCC3CNc4ccnn4C3)cn2)cc1 (stereo unspecified) | -9.82
CC(=O)Nc1nc(C(=O)NCCOc2ccccc2F)cs1 | -15.5
Cn1cc(C(=O)Nc2cccc(CCN3CCCC3)c2)ccc1=O | -5.46
COCCOCC(=O)N1CCCC(c2ncc[nH]2)C1 (stereo unspecified) | -16.6
Cc1cc(-c2cnc(N3CCOCC3)nc2-c2ccc(C)s2)on1 | -3.57
Cc1ccc(N2CCCC(N(C)Cc3nc(C)c(C)o3)C2)nn1 (stereo unspecified) | -11.5
Cc1nn(C)c(Cl)c1C1CCCN1CC(=O)NCc1ccccn1 (stereo unspecified) | -7.66
Cn1ncc2c(N3CCC(CCO)CC3)nc(C(C)(C)C)nc21 | -2.67
CC(NCc1cn(CCC(N)=O)c2ccccc12)c1nncn1C (stereo unspecified) | 23.7
CN(CCC1CCOCC1)[C@@H]1c2ccccc2C2(CCNCC2)[C@H]1O | -4.06
CCCc1nnc(NC2CCN(C3CCSCC3)CC2)o1 | -13.9
Cc1nccn1CCCN1CCC(c2nccn2CC2CCC2)CC1 | -3.77
Cc1oncc1C(=O)N1CCc2ncnc(-c3cnn(C)c3)c2CC1 | -1.31
COc1ccccc1OCCN(C)Cc1c(C2CC2)[nH]c2ncccc12 | 20.9
O=C1CCC2(CCN(Cc3ccsc3)CC2)N1Cc1ccccc1 | -10.3
Cn1cc(C(=O)NCc2cn3c(n2)CN(Cc2ccncc2)CC3)cn1 | -7.44
Cc1csc(NC(=O)C(C)Oc2ccc3c(c2)OCO3)n1 (stereo unspecified) | -9.39

Compound | cytotoxicity at 70.5 h [%]
O=C(Nc1ccc(Cl)cn1)C1CCN(CCc2ccccn2)CC1 | -1.68
c1cnc(N2CC[C@@H](N3CCOCC3)[C@@H]2Cc2ccncc2)nc1 | 11.8
CC(=O)N1CCN(C(=O)c2[nH]nnc2Nc2ccccc2F)CC1 | 8.05
Cc1cc(Cc2ccc(S(=O)(=O)N3CCCC3)cc2)c(=O)[nH]n1 | -23.4
Cc1ccc(CC(=O)N2CC[C@@H]3CN(CCN(C)C)CCO[C@@H]3C2)cc1 | -8.7
CC(C)NC(=O)[C@@H]1CC[C@@H]2[C@@H](CCN2Cc2ccc3ccccc3n2)O1 | -8.11
CN(C)C(=O)N1CCN(C(=O)c2ccc(Cl)c(Cl)c2)C(C)(C)C1 | 0.62
O=C(C1CCCCC1)N1C[C@@H]2CCN(c3cnccn3)C[C@@H]2C1 | -6.4
c1ccc(CCCC2CN(Cc3ncc[nH]3)CCO2)cc1 (stereo unspecified) | -6.86
CS(=O)(=O)NCC1OCCc2cn(CC3CC3)nc21 (stereo unspecified) | 13
Cn1cc(CNCC2Cn3nnc(-c4ccccc4)c3CO2)cn1 (stereo unspecified) | -16.3
CCc1ncncc1C(=O)N1CCN(Cc2c(C)noc2C)CC1 | -11.6
Cc1ccc(NCc2cncc3c2CCN(C(=O)C2CC=CC2)C3)nn1 | -1.58
Cn1cc(CN(C(=O)c2ccc3ncsc3c2)C2CC2)cn1 | 19.6
O=S(=O)(CCNC1CCc2ncnn2C1)c1ccccc1 (stereo unspecified) | -2.34
Cn1cnc2cc(C(=O)N3CCC(c4ccccc4C(=O)O)C3)cnc21 (stereo unspecified) | -8.01
O=C1OCCN1CCc1nc(-c2cc3c4c(c2)CC(=O)N4CCC3)cs1 | 10.6
CC(C)n1cc(S(=O)(=O)N2CCCCC2)cn1 | 9.02
